What was measured:
Assay in all cases: relative viability (nuclei count vs DMSO), 5 days (fraction); higher = more cells survive
NCI-H441 = tested on: NCI-H441
Method in brief: (§1)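 Medians of duplicate plates are given as relative viability. That measure is the nuclei count in treated wells divided by the count in vehicle wells. Counts were taken on 4× images of lung cancer cell lines in 1536-well plates, 5 days after pin-tool dosing the day after seeding with one drug alone or a fixed anchor-drug dose plus five library-drug doses (not always all listed) in √10 steps.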

NCI-H322M = tested on: NCI-H322M
Method in brief: as §1

NCI-H2347 = tested on: NCI-H2347
Method in brief: as §1

RERF-LC-KJ = tested on: RERF-LC-KJ
Method in brief: as §1

NCI-H358 = tested on: NCI-H358
Method in brief: as §1

NCI-H2228 = tested on: NCI-H2228
Method in brief: as §1

LCLC-103H = tested on: LCLC-103H
Method in brief: as §1

NCI-H1755 = tested on: NCI-H1755
Method in brief: as §1

NCI-H23 = tested on: NCI-H23
Method in brief: as §1

HCC-827 = tested on: HCC-827
Method in brief: as §1

NCI-H1793 = tested on: NCI-H1793
Method in brief: as §1

ChaGo-K-1 = tested on: ChaGo-K-1
Method in brief: as §1

PC-3 [JPC-3] = tested on: PC-3 [JPC-3]
Method in brief: as §1

HOP-62 = tested on: HOP-62
Method in brief: as §1

SW 900 = tested on: SW 900
Method in brief: as §1

LXF-289 = tested on: LXF-289
Method in brief: as §1

NCI-H1395 = tested on: NCI-H1395
Method in brief: as §1

NCI-H596 = tested on: NCI-H596
Method in brief: as §1

NCI-H2170 = tested on: NCI-H2170
Method in brief: as §1

NCI-H2126 = tested on: NCI-H2126
Method in brief: as §1

NCI-H647 = tested on: NCI-H647
Method in brief: as §1

NCI-H650 = tested on: NCI-H650
Method in brief: as §1

EPLC-272H = tested on: EPLC-272H
Method in brief: as §1

NCI-H1651 = tested on: NCI-H1651
Method in brief: as §1

LOU-NH91 = tested on: LOU-NH91
Method in brief: as §1

SMILES: Nc1cccc2c1CN(C1CCC(=O)NC1=O)C2=O (stereo unspecified) [Lenalidomide] + CCNC(=O)c1noc(-c2cc(C(C)C)c(O)cc2O)c1-c1ccc(CN2CCOCC2)cc1 [Luminespib] (partner 0.01 µM)
- relative viability (NCI-H441; first compound 0.253 µM): 0.293
- relative viability (NCI-H441; first compound 0.8 µM): 0.388
- relative viability (NCI-H441; first compound 2.53 µM): 0.307
- relative viability (NCI-H441; first compound 8 µM): 0.285
- relative viability (NCI-H322M; first compound 0.253 µM): 0.81
- relative viability (NCI-H322M; first compound 0.8 µM): 0.982
- relative viability (NCI-H322M; first compound 2.53 µM): 1.05
- relative viability (NCI-H322M; first compound 8 µM): 1.01
- relative viability (NCI-H2347; first compound 0.253 µM): 0.507
- relative viability (NCI-H2347; first compound 0.8 µM): 0.627
- relative viability (NCI-H2347; first compound 2.53 µM): 0.454
- relative viability (NCI-H2347; first compound 8 µM): 0.249
- relative viability (RERF-LC-KJ; first compound 0.253 µM): 1.28
- relative viability (RERF-LC-KJ; first compound 0.8 µM): 1.29
- relative viability (RERF-LC-KJ; first compound 2.53 µM): 1.12
- relative viability (RERF-LC-KJ; first compound 8 µM): 1.32
- relative viability (NCI-H358; first compound 0.253 µM): 0.419
- relative viability (NCI-H358; first compound 0.8 µM): 0.377
- relative viability (NCI-H358; first compound 2.53 µM): 0.437
- relative viability (NCI-H358; first compound 8 µM): 0.576
- relative viability (NCI-H2228; first compound 0.253 µM): 0.156
- relative viability (NCI-H2228; first compound 0.8 µM): 0.103
- relative viability (NCI-H2228; first compound 2.53 µM): 0.115
- relative viability (NCI-H2228; first compound 8 µM): 0.189
- relative viability (LCLC-103H; first compound 0.253 µM): 1.02
- relative viability (LCLC-103H; first compound 0.8 µM): 0.958
- relative viability (LCLC-103H; first compound 2.53 µM): 1.17
- relative viability (LCLC-103H; first compound 8 µM): 0.922
- relative viability (NCI-H1755; first compound 0.253 µM): 0.422
- relative viability (NCI-H1755; first compound 0.8 µM): 0.42
- relative viability (NCI-H1755; first compound 2.53 µM): 0.596
- relative viability (NCI-H1755; first compound 8 µM): 0.655
- relative viability (NCI-H23; first compound 0.253 µM): 0.218
- relative viability (NCI-H23; first compound 0.8 µM): 0.173
- relative viability (NCI-H23; first compound 2.53 µM): 0.196
- relative viability (NCI-H23; first compound 8 µM): 0.228
- relative viability (HCC-827; first compound 0.253 µM): 0.661
- relative viability (HCC-827; first compound 0.8 µM): 0.803
- relative viability (HCC-827; first compound 2.53 µM): 0.838
- relative viability (HCC-827; first compound 8 µM): 0.59
- relative viability (NCI-H1793; first compound 0.253 µM): 0.173
- relative viability (NCI-H1793; first compound 2.53 µM): 0.167
- relative viability (NCI-H1793; first compound 8 µM): 0.165
- relative viability (ChaGo-K-1; first compound 0.253 µM): 0.649
- relative viability (ChaGo-K-1; first compound 0.8 µM): 0.506
- relative viability (ChaGo-K-1; first compound 2.53 µM): 0.788
- relative viability (ChaGo-K-1; first compound 8 µM): 0.541
- relative viability (PC-3 [JPC-3]; first compound 0.253 µM): 0.651
- relative viability (PC-3 [JPC-3]; first compound 0.8 µM): 0.729
- relative viability (PC-3 [JPC-3]; first compound 2.53 µM): 0.616
- relative viability (PC-3 [JPC-3]; first compound 8 µM): 0.572
- relative viability (HOP-62; first compound 0.253 µM): 0.961
- relative viability (HOP-62; first compound 0.8 µM): 0.843
- relative viability (HOP-62; first compound 2.53 µM): 0.899
- relative viability (HOP-62; first compound 8 µM): 0.938
- relative viability (SW 900; first compound 0.253 µM): 0.195
- relative viability (SW 900; first compound 2.53 µM): 0.189
- relative viability (SW 900; first compound 8 µM): 0.183
- relative viability (LXF-289; first compound 0.253 µM): 0.799
- relative viability (LXF-289; first compound 0.8 µM): 0.686
- relative viability (LXF-289; first compound 2.53 µM): 0.768
- relative viability (LXF-289; first compound 8 µM): 0.725
- relative viability (NCI-H1395; first compound 0.253 µM): 0.796
- relative viability (NCI-H1395; first compound 0.8 µM): 0.72
- relative viability (NCI-H1395; first compound 2.53 µM): 0.855
- relative viability (NCI-H1395; first compound 8 µM): 0.615
- relative viability (NCI-H596; first compound 0.253 µM): 0.967
- relative viability (NCI-H596; first compound 2.53 µM): 1.29
- relative viability (NCI-H596; first compound 8 µM): 0.985
- relative viability (NCI-H2170; first compound 0.253 µM): 0.683
- relative viability (NCI-H2170; first compound 0.8 µM): 0.799
- relative viability (NCI-H2170; first compound 2.53 µM): 0.588
- relative viability (NCI-H2170; first compound 8 µM): 0.426
- relative viability (NCI-H2126; first compound 0.253 µM): 0.915
- relative viability (NCI-H2126; first compound 0.8 µM): 0.935
- relative viability (NCI-H2126; first compound 2.53 µM): 0.996
- relative viability (NCI-H2126; first compound 8 µM): 0.871
- relative viability (NCI-H647; first compound 0.253 µM): 0.133
- relative viability (NCI-H647; first compound 0.8 µM): 0.284
- relative viability (NCI-H647; first compound 2.53 µM): 0.203
- relative viability (NCI-H647; first compound 8 µM): 0.26
- relative viability (NCI-H650; first compound 0.253 µM): 0.905
- relative viability (NCI-H650; first compound 2.53 µM): 0.831
- relative viability (NCI-H650; first compound 8 µM): 0.823
- relative viability (EPLC-272H; first compound 0.253 µM): 0.341
- relative viability (EPLC-272H; first compound 0.8 µM): 0.259
- relative viability (EPLC-272H; first compound 2.53 µM): 0.276
- relative viability (EPLC-272H; first compound 8 µM): 0.204
- relative viability (NCI-H1651; first compound 0.253 µM): 0.713
- relative viability (NCI-H1651; first compound 0.8 µM): 0.895
- relative viability (NCI-H1651; first compound 2.53 µM): 0.987
- relative viability (NCI-H1651; first compound 8 µM): 1.03
- relative viability (LOU-NH91; first compound 0.253 µM): 0.343
- relative viability (LOU-NH91; first compound 0.8 µM): 0.343
- relative viability (LOU-NH91; first compound 2.53 µM): 0.313
- relative viability (LOU-NH91; first compound 8 µM): 0.283

From the supplement of paper PMC10307832
